Results published in patent US20230404963A1, “COMBINATIONS OF METAP2 INHIBITORS AND CD4/6 INHIBITORS FOR THE TREATMENT OF CANCER” (SynDevRx, Inc., priority 2020, published 2023).

Test system: MCF-7 tumors
Test: Tumor Growth Inhibition in mice bearing MCF-7 tumors treated with Compound 1 and/or ribociclib
Assay type: in vivo
Description: In the following experiment, mice bearing MCF-7 tumors were treated with either a vehicle control, Compound 1 alone, ribociclib alone, or with a combination of Compound 1 and ribociclib. MCF-7 were cultured in DMEM supplemented with 10% FBS. On the day of implantation, cells were washed 1× with phosphate-buffered saline (PBS). Following washing, cells were pelleted (5 min @ 1000 rpm, RT) and then counted with a hemocytometer. A cell concentration of 5×10^6 per mouse was re-suspended in an appropriate amount of PBS and 1:1 Matrigel. The suspension was kept on ice until implantation. Forty-eight hours prior to cell implantation, a 17-β estradiol pellet (0.36 mg 60-day slow release pellet) was be implanted subcutaneously between the scapulae of each Female Nu/j mouse. […] Once anesthetized, the mice were positioned ventral side up and anesthesia maintained through a fitted nose cone. The MCF-7 cell suspension was injected into the mammary fat pad at a volume of 100 μl containing 5×10^6 cells per mouse. Beginning 5 days post cell implantation, tumors were measured two times weekly (length×width) using a wireless digital calipers in conjunction with UWAVE-R to record measurements. […] The first day of treatment was designated “Day 1”. The mice were dosed either subcutaneously (SC), orally (PO), or by both dose routes, as put forth in the experimental designed summarized in Table 3. Doses were calculated by individual body weights. [table] The first group of mice (Group #1) were administered the vehicle control by oral administration once a day (QD). […] The fifth group of mice (Group #5) were administered Ribociclib at a dose of 35 mg/kg by oral administration once a day (QD). The sixth group of mice (Group #6) were administered Ribociclib at a dose of 70 mg/kg by oral administration once a day (QD). Twice weekly body weights and tumor measurements were recorded for the duration of the study. […] Upon euthanasia, a maximum volume terminal blood sample was obtained via cardiac puncture and split 200 μL in a K2EDTA MiniCollect tube for plasma separation and 420 μL in to a MiniCollect serum separator tube for half the mice for Clinical Chemistry analysis. For the other half of the mice, >200 μL of blood was collected in to K2EDTA MiniCollect tubes (LTT) for CBC analysis. The MiniCollect blood tubes for both plasma and serum were centrifuged at 8000 rpm for 5 minutes. The plasma was retained for biomarker analysis at −80° C., the serum and whole blood (LTT) were further analyzed. Additionally, tumor from the mice were dissected, weighed, and split into two pieces. Half of the tumor was placed into buffered formalin and stored at room temperature. Half of the tumor was snap-frozen in liquid N2, and stored at −80° C. […]

**Q.** Which results are given for CN(C)C(=O)c1cc2cnc(Nc3ccc(N4CCNCC4)cn3)nc2n1C1CCCC1 [Ribociclib, ribociclib]?
**A.** TGI % (day 14, Group 5: Ribociclib 35 mg/kg PO QD): 57%; TGI % (day 14, Group 6: Ribociclib 70 mg/kg PO QD): 70%; TGI % (day 18, Group 5: Ribociclib 35 mg/kg PO QD (10 times the dose on day 16)): 60%; TGI % (day 18, Group 6: Ribociclib 70 mg/kg PO QD (10 times the dose on day 16)): 70%
